{
  "source": "patent US20080200492A1",
  "about": "“METHODS FOR THE TREATMENT OF ALCOHOL ABUSE, ADDICTION AND DEPENDENCY” (priority 2006, published 2008)",
  "tested_on": "alcohol preferring rats",
  "assay": "Alcohol Preferring Rats In Vivo Model, acute oral dosing, two-bottle choice",
  "design": "species or system rat",
  "settings": "for Alcohol Intake / Alcohol Preference: mean ± S.E.M., N = 14",
  "method": "Adult male selectively-bred alcohol preferring rats (N=14) were used. This particular strain of alcohol drinking rat has been characterized and have been widely used to study the effects of different compounds on voluntary alcohol intake (Farren et al., 2000; Rezvani et al, 1990, 1991, 1992a, 1992b, 1999, 2000, 2003; Murphy et al, 1988; Overstreet et al., 2003, 1999; Li and McBride, 1990). Rats were housed individually in approved cages under a constant room temperature of 22+1° C. and 12:12 light-dark cycle (8:00-20:00, dark). Animal were fed Agway Prolab Rat/Mouse/Hamster 3000 formula and water ad libitum.\nAlcohol intake was determined using the standard two-bottle choice method utilized in our and other laboratories for many years (Murphy et al. 1988; Rezvani et al. 1990, 1991, 1993, 1995, 1997, Rezvani and Grady, 1994, Rezvani et al., 1993). Animals were first given free access to water in a graduated Richter tube for 2 days. Next, they were given access to only a solution of 10% (v/v) ethanol for 3 consecutive days. During this period animals became accustomed to drinking from Richter tubes and to the taste and pharmacological effects of alcohol. Thereafter, they were given free access to both water and a solution of 10% alcohol for at least 4 consecutive weeks and throughout of the period of study. Rats had free access to food. Water and alcohol intake were recorded at 6 and 24 hour after the treatment, whereas food intake was measured at 24 hour. Animals' body weights were measured the day of the treatment and the day after.\nAfter establishment of stable baseline for alcohol, food, and water intake, rats were administered (gavage) at 9:30 a.m. either with the vehicle or the compound of formula (I) at one of four doses (1,3,10 and 30 mg/kg) using a cross-over design with random assignment. To be able to compare the efficacy of the compound of formula (I) on alcohol intake naltrexone was included as a positive control. The same rats were given an oral dose of 20 mg/kg naltrexone. All animals will receive all treatments in a random order. The interval between treatments was at least 1 week. Alcohol and water intake were recorded 6 and 24 h after the drug administration and food intake was recorded at 24 hr. The volume of the drug administration was 6 ml/kg.\nThe results at 6 and 24 hours post-dosing are presented in Tables 3 and 4 below, as means ±SEM. Alcohol intake (g/kg) was calculated by multiplying the volume of alcohol consumed in ml by 10% and 0.7893 (ethanol density)/body weight in kg. Alcohol preference, expressed as a percentage, was calculated as follows (volume of alcohol consumed in ml/total fluid intake in ml)×100 (Rezvani and Grady, 1994; Rezvani et al., 1997). Statistical differences between drug-treated and control groups were determined by using ANOVA with repeated measures. Each treatment was compared with the corresponding vehicle value.",
  "key": {"[1]": {"settings": "1 mg/kg p.o., 6 hrs post-dosing"}, "[2]": {"settings": "1 mg/kg p.o., 24 hrs post-dosing"}, "[3]": {"settings": "3 mg/kg p.o., 6 hrs post-dosing"}, "[4]": {"settings": "3 mg/kg p.o., 24 hrs post-dosing"}, "[5]": {"settings": "10 mg/kg p.o., 6 hrs post-dosing"}, "[6]": {"settings": "10 mg/kg p.o., 24 hrs post-dosing"}, "[7]": {"settings": "30 mg/kg p.o, 6 hrs post-dosing"}, "[8]": {"settings": "30 mg/kg p.o, 24 hrs post-dosing"}, "[9]": {"settings": "20 mg/kg p.o., 6 hrs post-dosing"}, "[10]": {"settings": "20 mg/kg p.o., 24 hrs post-dosing"}},
  "data": [
    {"smiles": "Cc1cccc2cccc(CN3CCC4(CC3)C(=O)N(C[C@H](O)CN)CN4c3ccc(F)cc3)c12", "note": "[Cmpd (I-A), 3-(3-amino-2-(R)-hydroxy-propyl)-1-(4-fluoro-phenyl)-8-(8-methyl-naphthalen-1-ylmethyl)-1,3,8-triazaspiro[4.5]decan-4-one]", "values": [
      {"measurement": "Alcohol Intake", "setting": "[1]", "result": "1.85 ± 0.234", "unit": "g/kg"},
      {"measurement": "Alcohol Preference", "setting": "[1]", "result": "75.1 ± 5.60", "unit": "%"},
      {"measurement": "Alcohol Intake", "setting": "[2]", "result": "4.95 ± 0.389", "unit": "g/kg"},
      {"measurement": "Alcohol Preference", "setting": "[2]", "result": "80.4 ± 4.68", "unit": "%"},
      {"measurement": "Alcohol Intake", "setting": "[3]", "result": "1.53 ± 0.184", "unit": "g/kg"},
      {"measurement": "Alcohol Preference", "setting": "[3]", "result": "61.6 ± 6.19", "unit": "%"},
      {"measurement": "Alcohol Intake", "setting": "[4]", "result": "4.43 ± 0.339", "unit": "g/kg"},
      {"measurement": "Alcohol Preference", "setting": "[4]", "result": "68.9 ± 4.87", "unit": "%"},
      {"measurement": "Alcohol Intake", "setting": "[5]", "result": "1.59 ± 0.238", "unit": "g/kg"},
      {"measurement": "Alcohol Preference", "setting": "[5]", "result": "62.4 ± 6.33", "unit": "%"},
      {"measurement": "Alcohol Intake", "setting": "[6]", "result": "4.73 ± 0.351", "unit": "g/kg"},
      {"measurement": "Alcohol Preference", "setting": "[6]", "result": "71.7 ± 3.56", "unit": "%"},
      {"measurement": "Alcohol Intake", "setting": "[7]", "result": "0.905 ± 0.198", "unit": "g/kg"},
      {"measurement": "Alcohol Preference", "setting": "[7]", "result": "46.7 ± 8.20", "unit": "%"},
      {"measurement": "Alcohol Intake", "setting": "[8]", "result": "3.16 ± 0.582", "unit": "g/kg"},
      {"measurement": "Alcohol Preference", "setting": "[8]", "result": "50.1 ± 7.77", "unit": "%"},
      {"measurement": "Alcohol preference compared with vehicle", "setting": "30 mg/kg, both 6 hours and 24 hours post-dosing", "result": "reduced alcohol preference"},
      {"measurement": "Alcohol intake compared with vehicle", "setting": "acute oral administration of 3, 10 and 30 mg/kg, at 6 hr", "result": "significantly reduced alcohol intake"},
      {"measurement": "Alcohol intake compared with vehicle", "setting": "at 24 hr, only \"the mg/kg dose\" (dose figure missing)", "result": "statistically significantly (p<0.0002) in reducing alcohol intake"},
      {"measurement": "Alcohol preference compared with vehicle", "setting": "other doses (1, 3, 10 mg/kg), 6 hours and 24 hours post-dosing", "result": "did not significantly affect alcohol preference"}
    ]},
    {"smiles": "O=C1CC[C@@]2(O)[C@H]3Cc4ccc(O)c5c4[C@@]2(CCN3CC2CC2)[C@H]1O5", "note": "[Naltrexone, naltrexone, reference compound]", "values": [
      {"measurement": "Alcohol Intake", "setting": "[9]", "result": "1.19 ± 0.25", "unit": "g/kg"},
      {"measurement": "Alcohol Preference", "setting": "[9]", "result": "46.8 ± 7.91", "unit": "%"},
      {"measurement": "Alcohol Intake", "setting": "[10]", "result": "3.64 ± 0.545", "unit": "g/kg"},
      {"measurement": "Alcohol Preference", "setting": "[10]", "result": "58.8 ± 6.77", "unit": "%"},
      {"measurement": "Alcohol intake compared with vehicle", "setting": "naltrexone 20 mg/kg oral, 24 hr post-dosing", "result": "remained statistically significantly (p<0.0028) in reducing alcohol intake"},
      {"measurement": "Alcohol preference compared with vehicle", "setting": "naltrexone 20 mg/kg oral, both 6 hours and 24 hours post-dosing", "result": "reduced alcohol preference"}
    ]}
  ]
}
